# Biological target: T1, human GABA A receptor α5β3γ2 (Homo sapiens, UniProt P18507+P31644)
# T1 construct: expressed in transfected cells; host or cells: HEK293 cells, transiently transfected; membranes prepared from them
# Assay: [3H]flumazenil competition binding, HEK293 cells expressing human GABA A α5β3γ2 receptors
# Conditions: human α5β3γ2 in HEK293 (transiently transfected), 0.5 nM [3H]flumazenil, mean of two determinations; read-out: Ki[nM] hα5
# Experimental: Membrane Preparation and Binding Assay
# The affinity of compounds at GABA A receptor subtypes was measured by competition for [3H]flumazenil (85 Ci/mmol; Roche) binding to HEK293 cells expressing rat (stably transfected) or human (transiently transfected) receptors of composition α1β3γ2, α2β3γ2, α3β3γ2 and α5β3γ2.
# Cell pellets were suspended in Krebs-tris buffer (4.8 mM KCl, 1.2 mM CaCl2, 1.2 mM MgCl2, 120 mM NaCl, 15 mM Tris; pH 7.5; binding assay buffer), homogenized by polytron for ca. 20 sec on ice and centrifuged for 60 min at 4° C. (50000 g; Sorvall, rotor: SM24=20000 rpm). The cell pellets were resuspended in Krebs-tris buffer and homogenized by polytron for ca. 15 sec on ice. Protein was measured (Bradford method, Bio-Rad) and aliquots of 1 mL were prepared and stored at −80° C.
# Radioligand binding assays were carried out in a volume of […] (96-well plates) which contained […] of cell memebranes, [3H]flumazenil at a concentration of 1 nM for α1, α2, α3 subunits and 0.5 nM for α5 subunits and the test compound in the range of […]. Nonspecific binding was defined by 10^−5 M diazepam and typically represented less than 5% of the total binding. Assays were incubated to equilibrium for 1 hour at 4° C. and harvested onto GF/C uni-filters (Packard) by filtration using a Packard harvester and washing with ice-cold wash buffer (50 mM Tris; pH 7.5). After drying, filter-retained radioactivity was detected by liquid scintillation counting. Ki values were calculated using Excel-Fit (Microsoft) and are the means of two determinations.
row,Compound,Ki [nM]
1,"Cc1onc(-c2ccc(Br)cc2)c1C(=O)c1cc2cccc(OCc3ccncc3)c2o1 [Example 36, [3-(4-Bromo-phenyl)-5-methyl-isoxazol-4-yl]-[7-(pyridin-4-ylmethoxy)-benzofuran-2-yl]-methanone]",35.9
2,"Cc1onc(-c2ccccc2)c1C(=O)c1cc2cc(Cl)ccc2o1 [Example 19, (5-Chloro-benzofuran-2-yl)-(5-methyl-3-phenyl-isoxazol-4-yl)-methanone]",20
3,"CCOc1cccc2cc(C(=O)c3c(-c4ccc(Br)cc4)noc3C)oc12 [Example 32, [3-(4-Bromo-phenyl)-5-methyl-isoxazol-4-yl]-(7-ethoxy-benzofuran-2-yl)-methanone]",9.4
4,"Cc1onc(-c2ccccc2)c1C(=O)c1cc2cc(Br)ccc2o1 [Example 20, (5-Bromo-benzofuran-2-yl)-(5-methyl-3-phenyl-isoxazol-4-yl)-methanone]",41.6
5,"Cc1cc(COc2cccc3cc(C(=O)c4c(-c5ccc(Br)cc5)noc4C)oc23)on1 [Example 39, [3-(4-Bromo-phenyl)-5-methyl-isoxazol-4-yl]-[7-(3-methyl-isoxazol-5-ylmethoxy)-benzofuran-2-yl]-methanone]",63.8
6,"Cc1onc(-c2ccc(Br)cc2)c1C(=O)c1cc2ccccc2o1 [Example 28, Benzofuran-2-yl-[3-(4-bromo-phenyl)-5-methyl-isoxazol-4-yl]-methanone]",8.1
7,"COc1cccc2cc(C(=O)c3c(-c4ccccc4)noc3C)oc12 [Example 5, (7-Methoxy-benzofuran-2-yl)-(5-methyl-3-phenyl-isoxazol-4-yl)-methanone]",4
8,"Cc1onc(-c2ccccc2)c1C(=O)c1cc2cccc(F)c2o1 [Example 2, (7-Fluoro-benzofuran-2-yl)-(5-methyl-3-phenyl-isoxazol-4-yl)-methanone]",17.8
9,(5-Methoxy-benzofuran-2-yl)-(5-methyl-3-phenyl-isoxazol-4-yl)-methanone [Example 21],1.4
10,"Cc1onc(-c2ccccc2)c1C(=O)c1cc2cccc(OCc3cccnc3)c2o1 [Example 9, (5-Methyl-3-phenyl-isoxazol-4-yl)-[7-(pyridin-3-ylmethoxy)-benzofuran-2-yl]-methanone]",31.3
11,"Cc1cc(COc2cccc3cc(C(=O)c4c(-c5ccccc5)noc4C)oc23)on1 [Example 15, [7-(3-Methyl-isoxazol-5-ylmethoxy)-benzofuran-2-yl]-(5-methyl-3-phenyl-isoxazol-4-yl)-methanone]",18.9
12,"Cc1onc(-c2ccc(Br)cc2)c1C(=O)c1cc2ccc(O)cc2o1 [Example 40, [3-(4-Bromo-phenyl)-5-methyl-isoxazol-4-yl]-(6-hydroxy-benzofuran-2-yl)-methanone]",9.3
13,"Cc1onc(-c2ccccc2)c1C(=O)c1cc2cccc(OCC(=O)NC(C)C)c2o1 [Example 13, N-Isopropyl-2-[2-(5-methyl-3-phenyl-isoxazole-4-carbonyl)-benzofuran-7-yloxy]-acetamide]",1.8
14,"Cc1onc(-c2ccccc2)c1C(=O)c1cc2ccc(O)cc2o1 [Example 16, (6-Hydroxy-benzofuran-2-yl)-(5-methyl-3-phenyl-isoxazol-4-yl)-methanone]",3.7
15,"COc1ccc2cc(C(=O)c3c(-c4ccccc4)noc3C)oc2c1 [Example 17, (6-Methoxy-benzofuran-2-yl)-(5-methyl-3-phenyl-isoxazol-4-yl)-methanone]",3.5

# The remaining compounds from weak to strong by Ki, led by results:
row,Ki [nM],Compound
1,27.9,"Cc1onc(-c2ccccc2)c1C(=O)c1cc2cccc(OCc3ccncc3)c2o1 [Example 10, (5-Methyl-3-phenyl-isoxazol-4-yl)-[7-(pyridin-4-ylmethoxy)-benzofuran-2-yl]-methanone]"
2,13.8,"Cc1onc(-c2ccccc2)c1C(=O)c1cc2cccc(OCc3ncnn3C)c2o1 [Example 14, (5-Methyl-3-phenyl-isoxazol-4-yl)-[7-(2-methyl-2H-[1,2,4]triazol-3-ylmethoxy)-benzofuran-2-yl]-methanone]"
3,11.7,"Cc1onc(-c2ccc(Br)cc2)c1C(=O)c1cc2cccc(F)c2o1 [Example 29, [3-(4-Bromo-phenyl)-5-methyl-isoxazol-4-yl]-(7-fluoro-benzofuran-2-yl)-methanone]"
4,6.9,"Cc1onc(-c2ccccc2)c1C(=O)c1cc2cccc(O)c2o1 [Example 4, (7-Hydroxy-2-benzofuranyl)(5-methyl-3-phenyl-4-isoxazolyl)methanone]"
5,4.8,"COc1cccc2oc(C(=O)c3c(-c4ccc(Br)cc4)noc3C)cc12 [Example 44, [3-(4-Bromo-phenyl)-5-methyl-isoxazol-4-yl]-(4-methoxy-benzofuran-2-yl)-methanone]"
6,4.6,"Cc1onc(-c2ccc(Br)cc2)c1C(=O)c1cc2cc(O)ccc2o1 [Example 42, [3-(4-Bromo-phenyl)-5-methyl-isoxazol-4-yl]-(5-hydroxy-benzofuran-2-yl)-methanone]"
7,4.3,"COc1cc(OC)c2cc(C(=O)c3c(-c4ccccc4)noc3C)oc2c1 [Example 26, (4,6-Dimethoxy-benzofuran-2-yl)-(5-methyl-3-phenyl-isoxazol-4-yl)-methanone]"

# Source: US7388025B2, “3-aryl-isoxazole-4-carbonyl-benzofuran derivatives” (Hoffman-La Roche Inc., priority 2005, dated 2008)
